Measurements from patent US10856562B2, “Flavor composition and edible compositions containing same” (MARS, INCORPORATED, priority 2013, dated 2020).
“Also recorded” adds a separate entry of the source. Square brackets hold non-standard residues; d marks the D form. Ends that are not written are not given here. pGlu = O=C1CC[C@@H](C(=O)O)N1

Experiments:
panelists [1] = assay: Return to baseline protocol: salt reference re-tasted at 1 minute intervals; type: in vivo, human
Description: (§1) After evaluating the sample for salt and other perceptions (step 3 above), each panelist re-tasted the salt reference (5.0 intensity) at 1 minute intervals until their perception of the saltiness intensity of the reference returned to 5.0. Each panelist recorded salt intensity at each interval and took qualitative notes on other perceptions seen in aftertaste. Attribute Perception Protocol • The panelists evaluated each sample using the following procedure • Descriptive Profiles (flavor and chemical feeling factors) of 5 levels of salt enhancing solutions • Individual data was collected for the flavor and chemical feeling factors of the product in-mouth • Increased Salt Perception Protocol • Each panelist tasted salt 5 reference (0.35% salt solution)—to ground themselves on salt intensity of 5.0. • Each panelist tasted the test sample (0.1 ppb, 0.5 ppb, 1.0 ppb, 10.0 ppb or 40.0/50.0 ppb all in 0.2% NaCl solution: only one per session) • Each panelist then re-tasted the salt 5 reference and rated it for salt intensity as well as any other basic taste, chemical feeling factor, or aromatic perceived. This captured any increased salt perception indicated by the test sample as well as any other perceptions present. • Return to Baseline Protocol • After evaluating the sample for salt & other perceptions, panelists re-tasted the salt 5 reference at 1 minute intervals until their perception of the salt 5 saltiness intensity had returned to 5.0. Each panelist recorded their salt intensity at each interval and took qualitative notes on other perceptions seen in aftertaste. Sample Preparation

panelists [2] = assay: Descriptive profile (Spectrum method) of peptide in 0.2% NaCl solution, in-mouth; type: in vivo, human; details: for Astringent, in-mouth perception / Bitter, in-mouth perception / Flinty/Mineral, in-mouth perception / Metallic, in-mouth perception / Numbing, in-mouth perception / Salt, in-mouth perception (mean salt perception in-mouth) / Sour, in-mouth perception / Sweet, in-mouth perception: mean score, 15-point scale
Description: Descriptive Profiles (Flavor and Chemical Feeling Factors) of five use levels of a pGlu-Val-Leu flavor composition were determined using the Spectrum™ method. The five use levels were as follows: 0.1 ppb, 0.5 ppb, 1.0 ppb, 10.0 ppb and 40.0 ppb.
Data was collected for the flavor and chemical feeling factors of the product in-mouth for each of the five use levels according to the following protocol. One replication was collected for the flavor and chemical feeling factors of the product in-mouth. 6-9 panelists evaluated per session.
2. Each panelist tasted a test sample (0.1 ppb, 0.5 ppb, 1.0 ppb, 10.0 ppb or 40.0 ppb all in 0.2% NaCl solution). Only one sample was tasted per session.
Descriptive attributes (e.g., taste, flavor and chemical feeling factors) of six use levels of pGlu-Val-Leu (SE-13), pGlu-Val (SE-14) and pGlu-Val-Val (SE-17) flavor composition peptides were determined. The six use levels were as follows: 0.1 ppb, 0.5 ppb, 1.0 ppb, 10.0 ppb, 40.0 ppb and 50.0 ppb.
Data was collected for the attributes of the product in-mouth for the use levels according to the following protocol: • The samples were analyzed for flavor and aftertaste by six-nine members of a panel, trained and experienced in appearance, flavor and texture evaluation using the Spectrum™ method. Samples in solution were evaluated across multiple panel sessions. • The strength of each attribute was rated on a 15-point scale, where 0=none and 15=very strong. • This scale incorporates the ability to use tenths of a point and therefore has the potential of 150 scale differentiations. • The scale may be expanded beyond 15 points to include extreme ratings if necessary.
as §1, with “Attribute” for “After evaluating the sample for salt and other perceptions (step 3 above), each panelist re-tasted the salt reference (5.0 intensity) at 1 minute intervals until their perception of the saltiness intensity of the reference returned to 5.0. Each panelist recorded salt intensity at each interval and took qualitative notes on other perceptions seen in aftertaste. Attribute”
The 0.1, 0.5, 1.0 10, 40, and 50 ppb test samples of the flavor composition peptides were prepared in water as described in table 4.
The panelists evaluated each sample for the attributes described in table 5.

Substance: [pGlu]-Val-Val [SE-17]
- Mean time needed to return to baseline (panelists [1]; 0.1 ppb in 0.2% NaCl): 3.4 min
- Mean time needed to return to baseline (min.) (panelists [1]; 0.1 ppb in 0.2% NaCl): 3.4 min
- Time needed to return to baseline as the concentration increases (panelists [1]; 0.1 to 40.0/50.0 ppb): No definitive trends are seen; also recorded: no definitive trend
- Mean time needed to return to baseline (panelists [1]; 0.5 ppb in 0.2% NaCl): 5.6 min
- Mean time needed to return to baseline (min.) (panelists [1]; 0.5 ppb in 0.2% NaCl): 5.6 min
- Mean time needed to return to baseline (panelists [1]; 1.0 ppb in 0.2% NaCl): 5.0 min
- Mean time needed to return to baseline (min.) (panelists [1]; 1.0 ppb in 0.2% NaCl): 5.0 min
- Mean time needed to return to baseline (panelists [1]; 10.0 ppb in 0.2% NaCl): 5.0 min
- Mean time needed to return to baseline (min.) (panelists [1]; 10.0 ppb in 0.2% NaCl): 5.0 min
- Mean time needed to return to baseline (panelists [1]; 50.0 ppb in 0.2% NaCl): 4.1 min
- Mean time needed to return to baseline (min.) (panelists [1]; 50.0 ppb in 0.2% NaCl): 4.1 min
- Astringent, in-mouth perception (panelists [2]; 0.1 ppb in 0.2% NaCl): 0.0
- Bitter, in-mouth perception (panelists [2]; 0.1 ppb in 0.2% NaCl): 0.0
- Flinty/Mineral, in-mouth perception (panelists [2]; 0.1 ppb in 0.2% NaCl): 0.7
- Metallic, in-mouth perception (panelists [2]; 0.1 ppb in 0.2% NaCl): 0.0
- Numbing, in-mouth perception (panelists [2]; 0.1 ppb in 0.2% NaCl): 0.0
- Salt, in-mouth perception (mean salt perception in-mouth) (panelists [2]; 0.1 ppb in 0.2% NaCl): 3.1
- Sour, in-mouth perception (panelists [2]; 0.1 ppb in 0.2% NaCl): 0.0
- Sweet, in-mouth perception (panelists [2]; 0.1 ppb in 0.2% NaCl): 0.0
- Level of the aromatics, basic tastes and chemical feeling factors in-mouth with increasing concentration (panelists [2]; 0.1 to 40.0/50.0 ppb): does not increase
- Salt perception in-mouth as the concentration increases (panelists [2]; 0.1 to 40.0/50.0 ppb in 0.2% NaCl): does not increase notably; also recorded: Does not show a notable increase; also recorded: did not necessarily increase
- Astringent, in-mouth perception (panelists [2]; 0.5 ppb in 0.2% NaCl): 0.0
- Bitter, in-mouth perception (panelists [2]; 0.5 ppb in 0.2% NaCl): 0.0
- Flinty/Mineral, in-mouth perception (panelists [2]; 0.5 ppb in 0.2% NaCl): 0.8
- Metallic, in-mouth perception (panelists [2]; 0.5 ppb in 0.2% NaCl): 0.3
- Numbing, in-mouth perception (panelists [2]; 0.5 ppb in 0.2% NaCl): 0.0
- Salt, in-mouth perception (mean salt perception in-mouth) (panelists [2]; 0.5 ppb in 0.2% NaCl): 4.0
- Sour, in-mouth perception (panelists [2]; 0.5 ppb in 0.2% NaCl): 0.0
- Sweet, in-mouth perception (panelists [2]; 0.5 ppb in 0.2% NaCl): 0.0
- Astringent, in-mouth perception (panelists [2]; 1.0 ppb in 0.2% NaCl): 0.0
- Bitter, in-mouth perception (panelists [2]; 1.0 ppb in 0.2% NaCl): 0.0
- Flinty/Mineral, in-mouth perception (panelists [2]; 1.0 ppb in 0.2% NaCl): 0.5
- Metallic, in-mouth perception (panelists [2]; 1.0 ppb in 0.2% NaCl): 0.0
- Numbing, in-mouth perception (panelists [2]; 1.0 ppb in 0.2% NaCl): 0.0
- Salt, in-mouth perception (mean salt perception in-mouth) (panelists [2]; 1.0 ppb in 0.2% NaCl): 2.8
- Sour, in-mouth perception (panelists [2]; 1.0 ppb in 0.2% NaCl): 0.0
- Sweet, in-mouth perception (panelists [2]; 1.0 ppb in 0.2% NaCl): 0.0
- Astringent, in-mouth perception (panelists [2]; 10.0 ppb in 0.2% NaCl): 0.0
- Bitter, in-mouth perception (panelists [2]; 10.0 ppb in 0.2% NaCl): 0.0
- Flinty/Mineral, in-mouth perception (panelists [2]; 10.0 ppb in 0.2% NaCl): 0.5
- Metallic, in-mouth perception (panelists [2]; 10.0 ppb in 0.2% NaCl): 0.0
- Numbing, in-mouth perception (panelists [2]; 10.0 ppb in 0.2% NaCl): 0.0
- Salt, in-mouth perception (mean salt perception in-mouth) (panelists [2]; 10.0 ppb in 0.2% NaCl): 3.6
- Sour, in-mouth perception (panelists [2]; 10.0 ppb in 0.2% NaCl): 0.0
- Sweet, in-mouth perception (panelists [2]; 10.0 ppb in 0.2% NaCl): 0.0
- Astringent, in-mouth perception (panelists [2]; 50.0 ppb in 0.2% NaCl): 0.0
- Bitter, in-mouth perception (panelists [2]; 50.0 ppb in 0.2% NaCl): 0.0
- Flinty/Mineral, in-mouth perception (panelists [2]; 50.0 ppb in 0.2% NaCl): 0.5
- Metallic, in-mouth perception (panelists [2]; 50.0 ppb in 0.2% NaCl): 0.0
- Numbing, in-mouth perception (panelists [2]; 50.0 ppb in 0.2% NaCl): 0.0
- Salt, in-mouth perception (mean salt perception in-mouth) (panelists [2]; 50.0 ppb in 0.2% NaCl): 3.9
- Sour, in-mouth perception (panelists [2]; 50.0 ppb in 0.2% NaCl): 0.0
- Sweet, in-mouth perception (panelists [2]; 50.0 ppb in 0.2% NaCl): 0.0
- Umami like swelling of lips and tongue, in-mouth (panelists [2]; all levels): Some panelists also experience Umami like swelling of lips and tongue
- Umami like feeling factor of lip and tongue swelling (panelists [2]; both in-mouth and after expectoration): Shows umami like feeling factor of lip and tongue swelling
- Levels of salt perception in-mouth, comparison of SE-13, SE-14 and SE-17 (panelists [2]; overall): highest levels
